From patent publication US20200131227A1, “POLYPEPTIDE WITH TUMOUR BINDING ACTIVITY” (RUPRECHT-KARLS-UNIVERSITÄT HEIDELBERG, priority 2017, published 2020) come the findings set out here.

SMILES strings stand for the structures. Where a SMILES comes first, the peptide text is derived from it. Bridges are numbered along the chain shown (N, C = ends). The star is where a group is joined. DOTA = O=C(O)CN1CCN(CC(=O)O)CCN(CC(=O)*)CCN(CC(=O)O)CC1

A word on the IC50: it is the concentration that inhibits the measured activity by half. Read a low IC50 as inhibition by little substance.

In data set [1] the test system is HNSCC cell lines HNO97, HNO399, and HNO223. The class given is binding, human. As to the method:
For the assessment of the peptide binding capacity in vitro, 2.5-4×10^5 cells were seeded into 6-well plates and cultivated for 48 h. ^125I-labeled peptide resuspended in 1 mL serum-free medium was added and incubated for either 10 min or 60 min with or without different concentrations of unlabeled peptide (10^−4-10^−11 M). Afterwards, cell monolayers were washed three times with 1 mL phosphate-buffered saline (pH 7.4) to remove unbound peptide and the cells were harvested with 1.4 mL lysis buffer (0.3 M NaOH). To evaluate kinetic properties the cells were exposed to ^177Lu-DOTA-labeled peptides for 10, 30, 60, 120, and 240 min, respectively, and lysed as described. For the efflux experiments the cells were incubated with ^177Lu-DOTA-labeled peptides for 60 min. Thereafter, radioactive medium was replaced by non-radioactive medium and cell monolayers were incubated for additional 60, 120, and 240 min and afterwards lysed as described earlier. The internalization was assessed after exposure of the cells to ^177Lu-DOTA-labeled peptides for 10, 30, 60, 120, and 240 min at 37° C. Unspecifically bound peptide was removed from the surface by incubation with 1 M glycine-HCl solution (pH 2.2) for 10 min. The monolayer cell was rinsed with PBS and cells were lysed as described before. Radioactivity was determined in a y-counter and calculated as percentage of the applied dose per 1×10^6 cells. […]

Data set [2] in a line: Serum stability assay (radio-HPLC). The class given is in vitro ADME, human. Here is the method:
Five MBq of the purified ^131I-radiolabeled peptide was incubated in 300 μL human serum at 37° C. After different time intervals (15 min to 24 hours) 20 μL serum was precipitated with 40 μL acetonitrile. The stability of the labeled peptide in the supernatant was monitored by radio-HPLC at selected time points using a chromolith performance RP18ec column (3 mm×100 mm) equipped with a gamma detector (Packard COBRA™ Auto-Gamma, GMI). Separation condition was a gradient of 0% to 60% aqueous acetonitrile supplemented with 0.1% TFA over 10 min with a flow rate of 2 mL/min.

The test system of a further data set is HNO223 cells. The data set can be described thus: In vitro binding on HNO223 cells. As to conditions: Example 2, 10 min to 480 min (FIG. 16). It counts as cell-based, human. As to the method:
For binding studies, 2.5×10^5 to 4×10^5 cells were seeded in 6-well plates and cultivated for 48 hours. Cells were incubated for 60 min with 1 mL serum-free medium containing the ^125I-labeled peptide (see above). For competition experiments, cells were simultaneously exposed to unlabeled (10^-4 M to 10^-10 M) and ^125I-labeled peptides. After three washing steps with PBS (pH 7.4) the cells were lysed with 0.5 mL of 0.3 M NaOH. Experiments concerning the internalization, kinetics and efflux were additionally performed with ^177Lu-DOTA-SFITGv6. […] To continue with the efflux experiment radioactive medium was replaced by non-radioactive medium and cells were incubated again for 60 to 240 min before measuring radioactivity of the cell lysates and the medium. […] Radioactivity was determined in a gamma counter and calculated as percentage of the applied dose per 1×10^6 cells. […]
For the assessment of the peptide binding capacity in vitro, 2.5-4×10^5 cells were seeded into 6-well plates and cultivated for 48 h. ^125I-labeled peptide resuspended in 1 mL serum-free medium was added and incubated for either 10 min or 60 min with or without different concentrations of unlabeled peptide (10^−4-10^−11 M). […] The internalization was assessed after exposure of the cells to ^177Lu-DOTA-labeled peptides for 10, 30, 60, 120, and 240 min at 37° C. […]

The compound `CSCC[C@@H]1NC(=O)[C@H](CC(C)C)NC(=O)[C@H](CC(=O)O)NC(=O)CNC(=O)[C@H](CCCNC(=N)N)NC(=O)[C@H](Cc2ccccc2)NC(=O)[C@H]([C@@H](C)O)NC(=O)[C@@H](NC(=O)[C@H](CCCNC(=N)N)NC(=O)CN)CSSC[C@@H](C(=O)N[C@@H](Cc2ccc(O)cc2)C(=O)N2CCC[C@H]2C(=O)N[C@@H](CC(=O)O)C(=O)O)NC(=O)[C@H](CC(C)C)NC(=O)[C@H](CCC(N)=O)NC1=O` [SFITGv6, NH2-G-R-C1-T-F-R-G-D-L-M-Q-L-C1-Y-P-D-COOH] (H-GRCTFRGDLMQLCYPD-OH; disulfide 3-13) came in with an IC50 in data set [1] of 14.1 nM. Also, in data set [2], the “proteolytic stability in human serum” value is recorded as “outstanding stability in human serum over a period of 24 hours”. As for `CC(C)C[C@@H]1NC(=O)[C@H](CC(=O)O)NC(=O)CNC(=O)[C@H](CCCNC(=N)N)NC(=O)CNC(=O)[C@H]([C@@H](C)O)NC(=O)[C@@H](NC(=O)[C@H](CCCNC(=N)N)NC(=O)CNC(=O)CN2CCN(CC(=O)O)CCN(CC(=O)O)CCN(CC(=O)O)CC2)CSSC[C@@H](C(=O)N[C@@H](Cc2ccc(O)cc2)C(=O)N2CCC[C@H]2C(=O)N[C@@H](CC(=O)O)C(N)=O)NC(=O)[C@H](CC(C)C)NC(=O)[C@H](CCCNC(=N)N)NC(=O)CNC1=O` [^177Lu-DOTA-SFLAP3, metal not drawn] ({DOTA}-GRCTGRGDLGRLCYPD-NH2; disulfide 3-13; N-terminus and C-terminus assumed), the “maximum binding capacity of ^177Lu-DOTA-labeled peptide (kinetics)” value in the data set on HNO223 cells was 9.66%.
